# Data taken from ChEMBL document CHEMBL1132981 (J Med Chem, 2000).
# Key:
# [1] = molecular target: Adenosine receptors; A1 & A2b (Homo sapiens) (UniProt P30542+P29275); assay: Selectivity ratio of hA1 to hA2B; format: protein assay
# [2] = molecular target: Adenosine receptors; A2b & A3 (Homo sapiens) (UniProt P29275+P0DMS8); assay: Selectivity ratio of hA3 to hA2B; format: protein assay
# [3] = molecular target: T1, Adenosine receptor A3 (Rattus norvegicus, UniProt P28647); format: functional
# T1 sequence (P28647 whole entry): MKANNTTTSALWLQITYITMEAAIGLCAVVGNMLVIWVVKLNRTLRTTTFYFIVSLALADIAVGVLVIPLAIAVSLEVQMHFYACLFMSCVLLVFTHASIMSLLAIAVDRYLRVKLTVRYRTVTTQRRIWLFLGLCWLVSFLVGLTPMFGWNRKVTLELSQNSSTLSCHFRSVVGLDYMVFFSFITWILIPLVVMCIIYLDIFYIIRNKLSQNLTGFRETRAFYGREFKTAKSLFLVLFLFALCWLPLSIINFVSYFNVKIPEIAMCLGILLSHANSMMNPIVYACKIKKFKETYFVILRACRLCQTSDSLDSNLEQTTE
# [4] = molecular target: T2, Adenosine receptor A2b (Homo sapiens) (UniProt P29275); format: functional, cell-based; settings: HEK293, 10e-5 M
# T2 sequence (whole entry): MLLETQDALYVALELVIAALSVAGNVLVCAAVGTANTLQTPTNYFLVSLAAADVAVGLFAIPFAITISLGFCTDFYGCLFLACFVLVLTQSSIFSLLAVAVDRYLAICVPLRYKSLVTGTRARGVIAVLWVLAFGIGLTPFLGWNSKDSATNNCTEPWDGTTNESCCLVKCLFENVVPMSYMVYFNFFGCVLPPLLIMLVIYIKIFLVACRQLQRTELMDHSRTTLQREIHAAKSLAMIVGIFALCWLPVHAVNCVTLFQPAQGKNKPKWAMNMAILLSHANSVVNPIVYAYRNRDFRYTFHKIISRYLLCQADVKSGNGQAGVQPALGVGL
# [5] = molecular target: Adenosine receptor A2a (Rattus norvegicus) (UniProt P30543); assay: Antagonist activity against adenosine A2A receptor in rat striatal membrane using [3H]CGS-21680 at 10e-5 M; format: functional, cell membranes; settings: Striatum
# Sequence of Adenosine receptor A2a (Rattus norvegicus) (P30543 whole entry): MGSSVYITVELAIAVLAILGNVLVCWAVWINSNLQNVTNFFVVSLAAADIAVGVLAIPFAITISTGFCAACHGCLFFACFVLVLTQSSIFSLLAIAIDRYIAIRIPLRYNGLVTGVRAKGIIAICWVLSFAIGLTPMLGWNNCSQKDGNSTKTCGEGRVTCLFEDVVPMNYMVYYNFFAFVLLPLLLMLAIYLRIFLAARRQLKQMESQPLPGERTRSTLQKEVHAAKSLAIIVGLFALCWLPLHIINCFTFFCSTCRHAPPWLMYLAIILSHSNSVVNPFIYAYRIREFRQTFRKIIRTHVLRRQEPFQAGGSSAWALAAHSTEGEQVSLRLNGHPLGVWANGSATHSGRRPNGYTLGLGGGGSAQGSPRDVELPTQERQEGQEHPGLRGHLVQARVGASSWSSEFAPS
# [6] = molecular target: T3, Adenosine receptor A1 (Rattus norvegicus) (UniProt P25099); assay: Antagonist activity against A1 adenosine receptor in rat brain membrane using [3H]-R-PIA at 10e-5 M; format: functional, cell membranes
# T3 sequence (whole entry): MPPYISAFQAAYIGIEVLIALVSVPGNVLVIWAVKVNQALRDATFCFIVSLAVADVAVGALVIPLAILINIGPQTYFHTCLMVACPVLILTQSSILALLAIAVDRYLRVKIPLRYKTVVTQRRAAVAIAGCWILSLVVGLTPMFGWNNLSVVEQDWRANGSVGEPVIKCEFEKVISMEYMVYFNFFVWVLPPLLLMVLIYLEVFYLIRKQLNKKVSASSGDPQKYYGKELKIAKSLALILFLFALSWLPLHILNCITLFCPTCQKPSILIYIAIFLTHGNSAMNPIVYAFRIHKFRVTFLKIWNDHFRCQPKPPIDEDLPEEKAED
# [7] = molecular target: T4, Adenosine receptor A2b (Homo sapiens, UniProt P29275)
# T4 sequence (P29275 whole entry): T2 sequence (whole entry)
# Description: Antagonist activity against human A2B adenosine receptor expressed in HEK293 cells uisng [3H]ZM-241385 or [125I]-IABOPX
# [8] = molecular target: Adenosine receptor A2a (Rattus norvegicus, UniProt P30543); assay: biochemical
# Sequence of Adenosine receptor A2a (Rattus norvegicus, UniProt P30543) (P30543 whole entry): as the sequence (P30543 whole entry) above
# Description: Antagonist activity against adenosine A2A receptor in rat striatal membrane in presence of [3H]CGS-21680 radioligand.
# [9] = molecular target: T5, Adenosine receptor A1 (Rattus norvegicus, UniProt P25099); assay: biochemical
# T5 sequence (P25099 whole entry): T3 sequence (whole entry)
# Description: Antagonist activity against adenosine A1 receptor in rat brain membrane in presence of [3H]R-PIA radioligand.
# [10] = molecular target: T3, Adenosine receptor A1 (Rattus norvegicus); assay: Antagonist activity against adenosine A1 receptor in rat brain membrane using [3H]R-PIA at 10e-5 M; format: functional, cell membranes
# [11] = molecular target: Adenosine receptor A2a (Rattus norvegicus) (UniProt P30543); assay: Antagonist activity against adenosine A2A receptor in rat striatal membrane using [3H]CGS-21680; format: functional, cell membranes; settings: Striatum, concentration not given here
# [12] = molecular target: T6, Adenosine receptor A1 (Homo sapiens, UniProt P30542); assay: biochemical
# T6 sequence (P30542 whole entry): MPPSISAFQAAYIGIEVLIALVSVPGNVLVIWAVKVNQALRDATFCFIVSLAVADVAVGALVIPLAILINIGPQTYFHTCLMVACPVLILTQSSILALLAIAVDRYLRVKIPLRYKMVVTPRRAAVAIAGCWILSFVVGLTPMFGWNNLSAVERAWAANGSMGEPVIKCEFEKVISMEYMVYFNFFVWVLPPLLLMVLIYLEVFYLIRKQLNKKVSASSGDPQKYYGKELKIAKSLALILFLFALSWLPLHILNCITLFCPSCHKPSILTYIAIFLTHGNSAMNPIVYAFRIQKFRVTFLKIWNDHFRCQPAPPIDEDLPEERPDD
# Description: Antagonist activity against recombinant human adenosine A1 receptor expressed in HEK293 cells in presence of [125I]IABA radioligand.
# [13] = molecular target: Adenosine receptor A2a (Homo sapiens, UniProt P29274); assay: biochemical
# Sequence of Adenosine receptor A2a (Homo sapiens, UniProt P29274) (P29274 whole entry): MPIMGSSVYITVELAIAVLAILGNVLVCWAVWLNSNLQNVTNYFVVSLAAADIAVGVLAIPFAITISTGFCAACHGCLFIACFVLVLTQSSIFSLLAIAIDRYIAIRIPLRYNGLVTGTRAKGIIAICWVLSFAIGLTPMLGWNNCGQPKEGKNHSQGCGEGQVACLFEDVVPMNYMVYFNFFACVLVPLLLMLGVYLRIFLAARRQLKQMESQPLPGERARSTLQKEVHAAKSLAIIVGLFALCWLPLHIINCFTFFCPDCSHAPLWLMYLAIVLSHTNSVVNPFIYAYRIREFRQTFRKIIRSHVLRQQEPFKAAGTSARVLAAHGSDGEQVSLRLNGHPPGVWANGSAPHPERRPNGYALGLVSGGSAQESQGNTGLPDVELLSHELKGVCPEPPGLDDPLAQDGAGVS
# Description: Antagonist activity against recombinant human adenosine A2A receptor expressed in HEK293 cells in presence of [125I]iodo-ZM-241385 radioligand.
# [14] = molecular target: T7, Adenosine receptor A3 (Homo sapiens, UniProt P0DMS8); assay: biochemical
# T7 sequence (P0DMS8 whole entry): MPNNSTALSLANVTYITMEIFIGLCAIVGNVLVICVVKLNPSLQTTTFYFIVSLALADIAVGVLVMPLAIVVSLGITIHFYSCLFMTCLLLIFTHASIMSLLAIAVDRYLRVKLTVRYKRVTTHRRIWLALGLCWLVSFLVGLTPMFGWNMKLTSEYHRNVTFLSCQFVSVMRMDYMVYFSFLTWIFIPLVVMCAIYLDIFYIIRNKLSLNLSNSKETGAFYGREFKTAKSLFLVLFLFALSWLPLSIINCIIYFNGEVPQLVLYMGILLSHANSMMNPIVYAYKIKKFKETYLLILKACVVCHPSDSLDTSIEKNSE
# Description: Antagonist activity against human adenosine A3 receptor expressed in HEK cells in presence of [125]IAB-MECA or [125I]IABA radioligand.
# [15] = molecular target: T8, Adenosine receptor A3 (Homo sapiens) (UniProt P0DMS8); format: functional, cell-based; settings: HEK293, 10e-6 M
# T8 sequence (whole entry): T7 sequence (P0DMS8 whole entry)
Structure (SMILES),Ratio [1],Ratio [2],further results
CCCCn1c(=O)c2[nH]c(-c3ccc(OCC(=O)O)cc3)nc2n(CCCC)c1=O,,,Ki [3]: 27.5 µM
CC(=O)c1ccccc1NC(=O)/C=C/c1ccc(-c2nc3c(=O)n(Cc4ccccc4)c(=O)n(Cc4ccccc4)c3[nH]2)cc1,,,Displacement [4]: < 10%; Displacement [5]: < 10%
CC(=O)c1ccccc1NC(=O)/C=C/c1ccc(-c2nc3c(=O)n(CC4CCCCC4)c(=O)n(CC4CCCCC4)c3[nH]2)cc1,,,Displacement [4]: < 10%; Displacement [6]: < 10%; Displacement [5]: < 10%
CCn1c(=O)c2[nH]c(-c3ccc(OCC(=O)Nc4ccc(CC(=O)NCCN)cc4)cc3)nc2n(CC)c1=O,,,Ki [7]: 0.0152 µM; Ki [8]: 1.37 µM; Ki [9]: 0.065 µM
CC(=O)c1ccccc1NC(=O)COc1ccc(-c2nc3c(=O)n(Cc4ccccc4)c(=O)n(Cc4ccccc4)c3[nH]2)cc1,,,Displacement [4]: < 10%; Displacement [10]: < 10%; Displacement [5]: < 10%
CCCn1c(=O)c2[nH]c(-c3ccc(OCC(=O)Nc4ccc(F)cc4)cc3)nc2n(CCC)c1=O,,,Ki [9]: 0.272 µM
O=C(O)/C=C/c1ccc(-c2nc3c(=O)n(CC4CCCCC4)c(=O)n(CC4CCCCC4)c3[nH]2)cc1,25,4.6,Ki [8]: < 0.01 µM
CCCCn1c(=O)c2nc(-c3ccc(OCC(=O)O)cc3)[nH]c2n(CCCC)c1=O,3.1,1.9,
O=C(O)COc1ccc(-c2nc3c(=O)n(Cc4ccccc4)c(=O)n(Cc4ccccc4)c3[nH]2)cc1,,,inhibition [11]: 25%
CCCn1c(=O)c2nc(-c3ccc(OCC(=O)N(Cc4ccccc4)Cc4ccccc4)cc3)[nH]c2n(CCC)c1=O,70,29,
CCCn1c(=O)c2nc(-c3ccc(OCC(=O)NC(c4ccccc4)c4ccccc4)cc3)[nH]c2n(CCC)c1=O,,,inhibition [11]: 20%
CCCn1c(=O)c2[nH]c(-c3ccc(OCC(=O)Nc4ccc(C(N)=O)cc4)cc3)nc2n(CCC)c1=O,,,Ki [12]: 0.161 µM; Ki [13]: 0.039 µM
CCCn1c(=O)c2nc(-c3ccc(/C=C/C(=O)O)cc3)[nH]c2n(CCC)c1=O,,,Ki [7]: 0.06 µM; Ki [14]: 0.03 µM
CCCn1c(=O)c2[nH]c(-c3ccc(OCC(=O)Nc4ccc(C(=O)O)cc4)cc3)nc2n(CCC)c1=O,,,Ki [12]: 0.161 µM; Ki [13]: 0.039 µM; Ki [14]: > 5 µM
CCCn1c(=O)c2nc(-c3ccc(OCC(=O)NN4C(=O)C(C)=C(C)C4=O)cc3)[nH]c2n(CCC)c1=O,110,25,
C=CCn1c(=O)c2nc(-c3ccc(OCC(=O)O)cc3)[nH]c2n(CC=C)c1=O,12,5.8,
CCn1c(=O)c2nc(-c3ccc(OCC(=O)Nc4ccc(C)cc4)cc3)[nH]c2n(CC)c1=O,,,Displacement [15]: < 10%

# Further lines, with some results ahead:
Ratio [1],Ratio [2],Structure (SMILES),further results
57,92,CCCn1c(=O)c2nc(-c3ccc(OCC(=O)Nc4ccc(C(=O)OC)cc4)cc3)[nH]c2n(CCC)c1=O,
20,760,CCCn1c(=O)c2nc(-c3ccc(OCC(=O)Nc4ccc(Cl)cc4)cc3)[nH]c2n(CCC)c1=O,
8.1,176,CCCn1c(=O)c2nc(-c3ccc(OCC(=O)Nc4ccc(F)cc4)cc3)[nH]c2n(CCC)c1=O,
140,600,CCCn1c(=O)c2nc(-c3ccc(OCC(=O)Nc4ccc(I)cc4)cc3)[nH]c2n(CCC)c1=O,
27,93,CCCn1c(=O)c2nc(-c3ccc(OCC(=O)Nc4ccccc4)cc3)[nH]c2n(CCC)c1=O,
31,980,CCCn1c(=O)c2nc(-c3ccc(OCC(=O)Nc4ccc(Br)cc4)cc3)[nH]c2n(CCC)c1=O,
38,91,CCCn1c(=O)c2nc(-c3ccc(OCC(=O)Nc4ccc([N+](=O)[O-])cc4)cc3)[nH]c2n(CCC)c1=O,
10,> 300,CCCn1c(=O)c2nc(-c3ccc(OCC(=O)Nc4ccc(C(=O)O)cc4)cc3)[nH]c2n(CCC)c1=O,
48,72,CCCn1c(=O)c2nc(-c3ccc(OCC(=O)Nc4cccc(C(C)=O)c4)cc3)[nH]c2n(CCC)c1=O,
120,23,CCCn1c(=O)c2nc(-c3ccc(OCC(=O)Nc4ccccc4C(C)=O)cc3)[nH]c2n(CCC)c1=O,
29,100,CCCn1c(=O)c2nc(-c3ccc(OCC(=O)Nc4ccc(C(F)(F)F)cc4)cc3)[nH]c2n(CCC)c1=O,
110,170,CCCn1c(=O)c2nc(-c3ccc(OCC(=O)Nc4ccc(C(C)=O)cc4)cc3)[nH]c2n(CCC)c1=O,
